B1: mEnbrel: fully mouse version of Enbrel: mouse TNFR1B extracellular domain (Val-23 to Gly-258) fused to mouse IgG2A, TNFα blocking agent (protein, listed as Mus musculus)
chain: MRAWIFFLLCLAGRALAVPAQVVLTPYKPEPGYECQISQEYYDRKAQMCCAKCPPGQYVKHFCNKTSDTVCADCEASMYTQVWNQFRTCLSCSSSCTTDQVEIRACTKQQNRVCACEAGRYCALKTHSGSCRQCMRLSKCGPGFGVASSRAPNGNVLCKACAPGTFSDTTSSTDVCRPHRICSILAIPGNASTDAVCAPESPTLSAIPRTLYVSQPEPTRSQPLDQEPGPSQTPSILTSLGSTPIIEQSTKGGEPRGPTIKPCPPCKCPAPNLLGGPSVFIFPPKIKDVLMISLSPIVTCVVVDVSEDDPDVQISWFVNNVEVHTAQTQTHREDYNSTLRVVSALPIQHQDWMSGKEFKCKVNNKDLPAPIERTISKPKGSVRAPQVYVLPPPEEEMTKKQVTLTCMVTDFMPEDIYVEWTNNGKTELNYKNTEPVLDSDGSYFMYSKLRVEKKNWVERNSYSCSVVHEGLHNHHTTKSFSRTPGK
modifications: SIGNAL (1)..(17) Osteonectin signal sequence; (18)..(253) Mouse TNFR1B (V23 - G258); (254)..(486) Mouse IgG2a

What was measured:
Assay type in all cases: in vivo, mice (male DBA/1)
[1] = Pharmacokinetics of Compound (I) in CIA model, whole blood (DBS) drug concentration by LCMS
Procedure: (§1) Male DBA/1 mice (9-11 weeks of age, Harlan) were primed with bovine type II collagen (Chondrex #20021) in adjuvant (Sigma adjuvant system, Sigma Aldrich #S6322) at the base of tail on day 1 and on day 21. Mice were randomized into 7 groups based on body weight and assigned as either vehicle (10% ethanol; 45% PEG 300; 5% pluronic F-68; 40% 20 mM citrate buffer); Compound (I) at 0.25 and 2.5 mg/kg or mEnbrel (mouse Enbrel) at 10 mg/kg or combination of Compound (I) with mEnbrel at 0.25+10 mg/kg and 2.5+10 mg/kg or mCTLA4 (mouse CTLA4-Ig) (as a reference compound) at 3 mg/kg dose level. […] Disease activity was monitored and scored twice per week using standard criteria (0: normal; 1: mild, but definite redness and swelling of the ankle or wrist, or apparent redness and swelling limited to individual digits regardless of number of affected digits; 2: moderate redness and swelling of ankle or wrist; 3: severe redness and swelling of the entire paw including digits; 4: maximally inflamed limb with involvement of multiple joints). […]
FIG. 3: Pharmacokinetic analysis of Compound (I) in CIA model of arthritis. […] Following 19 days of dosing, whole blood was drawn at different time points and DBS drug concentrations were measured by LCMS. […]

IL-6 = assay: Plasma IL-6 at termination in collagen-induced arthritis model; conditions: Compound (I) alone, 0.25 and 2.5 mg/kg
Procedure: Male DBA/1 mice (9-11 weeks of age, Harlan) were primed with bovine type II collagen (Chondrex #20021) in adjuvant (Sigma adjuvant system, Sigma Aldrich #S6322) at the base of tail on day 1 and on day 21. Mice were randomized into 7 groups based on body weight and assigned as either vehicle (10% ethanol; 45% PEG 300; 5% pluronic F-68; 40% 20 mM citrate buffer); Compound (I) at 0.25 and 2.5 mg/kg or mEnbrel (mouse Enbrel) at 10 mg/kg or combination of Compound (I) with mEnbrel at 0.25+10 mg/kg and 2.5+10 mg/kg or mCTLA4 (mouse CTLA4-Ig) (as a reference compound) at 3 mg/kg dose level. Compound (I) was administered from day 21 by oral gavage once daily whereas mEnbrel and mCTLA4 were administered from day of primary immunization, twice per week by intraperitoneal injection. Disease activity was monitored and scored twice per week using standard criteria (0: normal; 1: mild, but definite redness and swelling of the ankle or wrist, or apparent redness and swelling limited to individual digits regardless of number of affected digits; 2: moderate redness and swelling of ankle or wrist; 3: severe redness and swelling of the entire paw including digits; 4: maximally inflamed limb with involvement of multiple joints). […] At the time of termination (A) serum anti-collagen antibody titer and (B) plasma IL-6 was assessed. […]

[2] = test system: collagen-induced arthritis model; assay: Collagen-induced arthritis in mice, clinical score (arthritic index); conditions: for disease score: mouse CIA, Compound (I) 0.25 mg/kg oral once daily from day 21, mEnbrel 10 mg/kg i.p. twice per week from primary immunization, combination 0.25+10 mg/kg
Procedure: Male DBA/1 mice (9-11 weeks of age, Harlan) were primed with bovine type II collagen (Chondrex #20021) in adjuvant (Sigma adjuvant system, Sigma Aldrich #S6322) at the base of tail on day 1 and on day 21. Mice were randomized into 7 groups based on body weight and assigned as either vehicle (10% ethanol; 45% PEG 300; 5% pluronic F-68; 40% 20 mM citrate buffer); Compound (I) at 0.25 and 2.5 mg/kg or mEnbrel (mouse Enbrel) at 10 mg/kg or combination of Compound (I) with mEnbrel at 0.25+10 mg/kg and 2.5+10 mg/kg or mCTLA4 (mouse CTLA4-Ig) (as a reference compound) at 3 mg/kg dose level. Compound (I) was administered from day 21 by oral gavage once daily whereas mEnbrel and mCTLA4 were administered from day of primary immunization, twice per week by intraperitoneal injection. Disease activity was monitored and scored twice per week using standard criteria (0: normal; 1: mild, but definite redness and swelling of the ankle or wrist, or apparent redness and swelling limited to individual digits regardless of number of affected digits; 2: moderate redness and swelling of ankle or wrist; 3: severe redness and swelling of the entire paw including digits; 4: maximally inflamed limb with involvement of multiple joints).
Compound (I) was tested in the semi-therapeutic mode of treatment in mouse collagen-induced arthritis model. Dosing initiated after the antigen boost (from day 21) and continued up to day 45.
Compound (I) was tested in combination with the TNFα blocking agent mEnbrel in the collagen-induced arthritis model where dosing of Compound (I) was initiated after the antigen boost whereas mEnbrel was administered from the day of primary immunization.
Mice were treated with respective treatment. During the entire study course (A) and at the time of termination (B) disease was assessed by measuring the clinical score (arthritic index). Data are from one experiment with 10 mice per group. ***P<0.0001 versus vehicle by one-way ANOVA with a Dunnett test.

anti-collagen antibodies = assay: Serum anti-collagen antibody titer at termination in collagen-induced arthritis model; conditions: Compound (I) alone, 0.25 and 2.5 mg/kg
Procedure: as §1
FIG. 2: Inhibition of circulating markers by Compound (I) alone and in combination with mEnbrel. […] At the time of termination (A) serum anti-collagen antibody titer and (B) plasma IL-6 was assessed. […]

Molecule	whole blood drug concentration ([1]; 0.25 and 2.5 mg/kg oral, after 19 days of dosing, 1-24 h post dose)	whole blood concentration of Compound (I) in the presence of mEnbrel ([1]; co-treatment with mEnbrel 10 mg/kg)	plasma IL-6 (IL-6)	arthritic score at the termination of the study ([2]; Compound (I) alone, 0.25 and 2.5 mg/kg oral once daily from day 21)	disease score [2]	inhibition of clinical signs of disease, earliest time ([2]; semi-therapeutic mode, dosing from day 21 up to day 45, 0.25 and 2.5 mg/kg oral once daily)	serum anti-collagen-antibody titer (anti-collagen antibodies)
Cc1c(-c2[nH]c3ccc(C4CCN(CC(N)=O)CC4)cc3c2C(C)C)cn2ncnc2c1C [Compound (I), 2-(4-(2-(7,8-dimethyl-[1,2,4]triazolo[1,5-a]pyridin-6-yl)-3-isopropyl-1H-indol-5-yl)piperidin-1-yl)acetamide]	dose dependent increase	not altered	dose dependent reduction	Significant dose dependent suppression	82 % of control	7 days post dosing	dose dependent reduction
B1	–	–	–	–	56 % of control	–	–
